Where two headings read alike, the source gives them in different places. Marks after values point to notes of the source that are not given here.
Legend:
[1] = target: dog renal Na^+/K^+ ATPase (Canis lupus familiaris (Dog) (Canis familiaris), UniProt P50997); experiment: biochemical; details: IC50 inhibition of dog renal Na+/K+ ATPase, purified dog kidney enzyme;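 note: enzyme preincubated with inhibitor 10 min at 37 °C, then K^+ and ^32P-ATP added for 15 min, released ^32P counted, activity relative to untreated control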
Description: Inhibition of Dog Renal Na^+/K^+ ATPase Activity
The compounds were thus tested for their inhibitory effect on the canine renal Na^+/K^+ ATPase enzyme.
Kidneys were excised from 1-3 year-old male beagle dogs (WuXi AppTec, Suzhou Co., Ltd. 1318 Wuzhong Ave., Wuzhong District Suzhou, 215104 P.R. China) under pentobarbital anesthesia (Import Authorization from Italian Health Ministry 0009171-09/04/2015-DGSAF-COD_UO-P, 2015). Kidneys were sliced and the outer medulla was dissected and suspended (1 g/10 ml) in a sucrose-histidine solution containing 250 mM sucrose, 30 mM histidine, and 5 mM EDTA, pH 7.2. The tissue was homogenized by using an Ultra Turrax homogenizer. The sample was centrifuged at 6,000 g for 15 min. Next, the supernatant was decanted and centrifuged at 48,000 g for 30 min. The pellet was suspended in the sucrose-histidine buffer and incubated for 20 min with a sodium-dodecyl-sulphate (SDS) solution dissolved in a gradient buffer containing 25 mM imidazole and 1 mM EDTA, pH 7.5. The sample was layered on the top of a sucrose discontinuous gradient (10, 15, and 29.4%) and centrifuged at 60,000 g for 115 min. The pellet was suspended in the gradient buffer.
Increasing concentrations of the standard ouabain, or tested compound, were incubated with 0.3 μg of purified dog kidney enzyme for 10 min at 37° C. in 120 μl final volume of a medium containing 140 mM NaCl, 3 mM MgCl2, 50 mM Hepes-Tris, 3 mM ATP, pH 7.5. Then, 10 μl of a solution containing 10 mM KCl and 20 nCi of ^32P-ATP (3-10 Ci/mmol, Perkin Elmer) were added. The reaction was allowed to continue for 15 min at 37° C. and then stopped by acidification with 20% v/v ice-cold perchloric acid. ^32P was separated by centrifugation with activated Charcoal (Norit A, Serva) and the radioactivity was counted. The inhibitory activity was expressed as percent of the control samples carried out in the absence of ouabain, or tested compound.

[2] = target: SERCA2a (Cavia porcellus, UniProt A0A286XD73); experiment: SERCA2a ATPase activity in heart-derived SR microsomes from normal guinea-pig; format: biochemical
Protocol: SERCA2a ATPase Activity in Heart-Derived SR Microsomes from Normal Quinea-Pig
SERCA2a activity was measured in vitro as ^32P-ATP hydrolysis at different Ca^2+ concentrations (100-4000 nM) in the absence and presence of the tested compounds, as described (Micheletti R. et al., Am J Card 2007, 99:24A-32A). Increasing concentrations of each compound (ranging from 1 to 200 nM) were pre-incubated with 2 μg of SERCA2a enriched microsomes for 5 min at 4° C. in 80 μl of a solution containing 100 mM KCl, 5 mM MgCl2, 1 μM A23187, 20 mM Tris, pH 7.5. […] SERCA2a-dependent activity was identified as the portion of total hydrolytic activity inhibited by 10 μM cyclopiazonic acid (Seidler N W et al., J Biol Chem. 1989, 264:17816-23).
Dose-response curves were fitted by using a sigmoidal equation and the activity at the maximal velocity (Vmax) and the Kd for Ca^2+ were calculated (Synergy Software KaleidaGraph 3.6). The effect of the compounds in normal guinea-pig preparations was expressed as % decrease of Kd Ca^2+ (implying an increase of affinity for Ca^2+) of a control sample run in the absence of compound (Table 2). […] Data are mean±SD, n=number of experiments, *at least p<0.05.

[3] = compound 10 nM, read-out: Kd Ca2+ (nM) mean ± SD
[4] = compound 100 nM, read-out: Kd Ca2+ (nM) mean ± SD
[5] = compound 200 nM, read-out: Kd Ca2+ (nM) mean ± SD
[6] = read-out: Kd Ca2+ (nM) mean ± SD, compound 100 nM
[7] = read-out: Kd Ca2+ (nM) mean ± SD, compound 200 nM

Chain of SERCA2a (A0A286XD73 1-997): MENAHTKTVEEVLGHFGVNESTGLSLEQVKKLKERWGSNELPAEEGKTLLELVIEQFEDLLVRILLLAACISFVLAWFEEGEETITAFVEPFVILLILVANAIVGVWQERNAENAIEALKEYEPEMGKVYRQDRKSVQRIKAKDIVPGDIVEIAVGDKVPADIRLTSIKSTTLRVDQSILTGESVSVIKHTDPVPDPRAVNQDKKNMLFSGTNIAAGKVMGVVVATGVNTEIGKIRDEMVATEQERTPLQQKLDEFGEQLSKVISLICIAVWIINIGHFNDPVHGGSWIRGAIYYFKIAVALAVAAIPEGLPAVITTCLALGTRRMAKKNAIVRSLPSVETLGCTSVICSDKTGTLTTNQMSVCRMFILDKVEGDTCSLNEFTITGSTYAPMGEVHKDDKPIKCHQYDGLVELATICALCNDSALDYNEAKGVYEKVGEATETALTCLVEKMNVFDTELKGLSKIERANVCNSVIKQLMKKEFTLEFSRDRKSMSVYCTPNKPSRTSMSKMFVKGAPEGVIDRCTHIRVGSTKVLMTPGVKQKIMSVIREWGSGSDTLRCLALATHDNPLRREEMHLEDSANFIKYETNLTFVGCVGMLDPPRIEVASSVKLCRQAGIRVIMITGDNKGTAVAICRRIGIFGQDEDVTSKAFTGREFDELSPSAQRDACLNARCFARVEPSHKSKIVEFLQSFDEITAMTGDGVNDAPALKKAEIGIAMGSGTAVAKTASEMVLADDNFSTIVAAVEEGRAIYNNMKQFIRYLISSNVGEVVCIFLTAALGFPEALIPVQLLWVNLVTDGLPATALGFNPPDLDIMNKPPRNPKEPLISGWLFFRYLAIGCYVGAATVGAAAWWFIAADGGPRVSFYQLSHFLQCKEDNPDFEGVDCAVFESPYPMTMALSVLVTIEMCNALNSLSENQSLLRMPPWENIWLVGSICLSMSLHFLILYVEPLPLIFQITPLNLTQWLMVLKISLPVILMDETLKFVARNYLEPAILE

Row | Compound | IC50 [1] | % change in Ca2+ Kd vs control (negative = decrease) ([2]; compound 10 nM) | Kd [2, 3] | % change in Ca2+ Kd vs control (negative = decrease) ([2]; compound 100 nM) | Kd [2, 4] | % change in Ca2+ Kd vs control (negative = decrease) ([2]; compound 200 nM) | Kd [2, 5] | Kd [2, 6] | Kd [2, 7]
1 | C[C@]12CCC(=CCCCN)CC1[C@@H](O)C[C@@H]1[C@@H]2CC[C@]2(C)C(=O)CC[C@@H]12 (mixture of isomers) [CVie209, (EZ)-3-(4-aminobutyliden]-6alpha-hydroxyandrostane-17-one] | 800 nM | – | – | – | – | – | – | – | –
2 | C[C@]12CCC(=CCC3CCNC3)CC1[C@@H](CO)C(=O)C1C2CC[C@]2(C)C(=O)CCC12 (mixture of isomers) [CVie402, (E,Z)-3-[2-(pirrolidin-3yl)ethyliden]-6alpha-hydroxymethylandrostane-7,17-dione] | 4600 nM | – | – | – | – | – | – | – | –
3 | C[C@]12CCC(=CCC3CCNCC3)CC1[C@@H](CO)C(=O)C1C2CC[C@]2(C)C(=O)CCC12 (mixture of isomers) [CVie405, (E,Z)-3-[2-(piperidin-4-yl)ethyliden]-6alpha-hydroxymethylandrostane-7,17-dione] | 7900 nM | – | – | – | – | – | – | – | –
4 | CNCCCCC=C1CC[C@]2(C)C3CC[C@]4(C)C(=O)CCC4C3[C@H](O)[C@H](CO)C2C1 (mixture of isomers) [CVie406, (E,Z)-3-(5-N-methylaminopentyliden)-6alpha-hydroxymethyl-7alpha-hydroxyandrostane-17-one] | 1900 nM | – | – | – | – | – | – | – | –
5 | C[C@]12CC/C(=C\CCC(=O)O)CC1[C@@H](O)C[C@@H]1[C@@H]2CC[C@]2(C)C(=O)CC[C@@H]12 (stereo partly drawn) [CVie201, (E)-4-(6alpha-hydroxy-17-oxoandrostane-3-yliden)butyric acid] | > 100000 nM | −14%* | 459 ± 57.1 nM | −15%* | 454 ± 53.2 nM | – | – | – | –
6 | C[C@]12CC/C(=C/CCC(=O)O)CC1[C@@H](O)C[C@@H]1[C@@H]2CC[C@]2(C)C(=O)CC[C@@H]12 (stereo partly drawn) [CVie202, (Z)-4-(6alpha-hydroxy-17-oxoandrostane-3-yliden)butyric acid] | > 100000 nM | −4% | 448 ± 9.4 nM | −7% | 436 ± 24.9 nM | −6% | 437 ± 26.4 nM | – | –
7 | C[C@]12CC/C(=C\CCC(=O)O)CC1[C@H](O)C[C@@H]1[C@@H]2CC[C@]2(C)C(=O)CC[C@@H]12 (stereo partly drawn) [CVie203, (E)-4-(6beta-hydroxy-17-oxoandrostane-3-yliden)butyric acid] | > 100000 nM | −8% | 418 ± 36.5 nM | −15%* | 386 ± 33.3 nM | −14%* | 393 ± 31.3 nM | – | –
8 | C[C@]12CC/C(=C/CCC(=O)O)CC1[C@H](O)C[C@@H]1[C@@H]2CC[C@]2(C)C(=O)CC[C@@H]12 (stereo partly drawn) [CVie204, (Z)-4-(6beta-hydroxy-17-oxoandrostane-3-yliden)butyric acid] | > 100000 nM | – | – | +13% | 493 ± 107 nM | −3% | 424 ± 82.7 nM | – | –
9 | C[C@]12CC/C(=C\CC3CNC3)CC1[C@@H](O)C[C@@H]1[C@@H]2CC[C@]2(C)C(=O)CC[C@@H]12 (stereo partly drawn) [CVie205, (E)-3-[2-(azetidin-3-yl)ethyliden]-6alpha-hydroxyandrostane-17-one] | 7000 nM | – | – | −16.7%* | – | −13.1%* | – | 656 ± 56.6 nM | 683 ± 46.4 nM
10 | C[C@]12CC/C(=C/CC3CNC3)CC1[C@@H](O)C[C@@H]1[C@@H]2CC[C@]2(C)C(=O)CC[C@@H]12 (stereo partly drawn) [CVie206, (Z)-3-[2-(azetidin-3-yl)ethyliden]-6alpha-hydroxyandrostane-17-one] | 5900 nM | – | – | −13.7%* | – | −15.1%* | – | 678 ± 86.7 nM | 667 ± 55.6 nM
11 | C[C@]12CC=C(CCCCN)CC1[C@@H](O)CC1C2CC[C@]2(C)C(=O)CCC12 (stereo partly drawn) [CVie207, (E)-3-(4-aminobutyl)-6alpha-hydroxyandrost-2-ene-17-one hydroiodide] | 3900 nM | – | – | – | – | – | – | – | –
12 | C[C@]12CC=C(CCC3CCNCC3)CC1[C@@H](O)C[C@@H]1[C@@H]2CC[C@]2(C)C(=O)CC[C@@H]12 (stereo partly drawn) [CVie208, 3-[2-(piperidin-4-yl)ethyl]-6alpha-hydroxyandrost-2-ene-17-one hydroiodide] | 10400 nM | – | – | −19.1%* | 362 ± 72.2 nM | −21.7% | 350 ± 109 nM | – | –
13 | C[C@]12CC/C(=C\CC3CCNCC3)CC1[C@@H](O)C[C@@H]1[C@@H]2CC[C@]2(C)C(=O)CC[C@@H]12 (stereo partly drawn) [CVie210, (E)-3-[2-(piperidin-4-yl)ethyliden]-6alpha-hydroxyandrostane-17-one] | 13100 nM | – | – | – | – | – | – | – | –
